The values that follow come from US7709523B2, “Alpha-aminoamide derivatives useful as antimigraine agents” (Newron Pharmaceuticals SpA, priority 2003, dated 2010).

The subject of this test is CBF response evoked by electrical stimulation of the left ophthalmic branch of the trigeminal ganglion. Nature of the test: Inhibition of cerebral blood flow (CBF) increase evoked by electrical stimulation of the trigeminal ganglion in anesthetized rats. The class given is in vivo, Male Wistar rats. Conditions: rat, i.v.; for % Inhibition of the CBF response: mean±S.E. of 4/6 rats, versus vehicle. The protocol:
Male Wistar rats (250-350 g) were anesthetized with sodium pentobarbital (50 mg/kg i.p.) dissolved in saline. The trachea and left femoral artery were cannulated for artificial ventilation (55 strokes/min) and for measurement of mean blood pressure (MBP) respectively. The femoral vein was cannulated for the intravenous administration of test agents. Body temperature was maintained at 37-38° C. by automatic control of a heating pad. Animals were placed in a stereotaxic frame and a longitudinal incision was made in the scalp. A burr hole was drilled in the skull and a stainless steel bipolar electrode (Plastic One MS 306) was lowered into left ophthalmic branch of the trigeminal ganglion (3.8 mm […] to bregma, 2.5 mm lateral from the midline and 9.5 mm below the dural surface) and secured with dental cement. Correct placement of the electrode was confirmed by a brief electrical stimulation, which cause movement of the jaw due to activation of the trigeminal fiber. Following removal of the brain, the correct position of the electrode into the fiber, was visually checked at the end of each experiment. A second hole was drilled ipsilateral of the electrode (1.5 mm rostral to bregma, and 1.5 mm lateral from the sagittal suture) and a needle probe (tip diameter 0.8 mm) of a laser doppler flowmeter was fixed pointing with its tip onto a branch of the middle cerebral artery (MCA) and Cerebral Blood Flow (CBF) change recorded on-line by the PeriFlux 4001 Laser Doppler system. Artefacts of the laser Doppler reading during electrical stimulation of the trigeminal ganglion due to muscular movements were prevented by a bolus of i.v. injection of the neuromuscular blocker pancuronium bromide (0.6 mg/kg i.v.). Anesthesia and neuromuscular blockade were maintained all over the experiment with an infusion of sodium pentobarbital and pancuronium (12.5 mg/kg/h+2.4 mg/kg/h, respectively). At the end of the surgery, a pause of thirty minutes was taken in order to stabilize the measured parameters. Rest CBF was increased by electrical stimulation with rectangular pulse of 0.5 msec length, 1-10 Hz, 0.5-1 mA for periods of 30 seconds. After two averaged pre-drug stimulations, vehicle or drugs were administered. The α-aminoamide compounds NW-1015, NW-1029, NW-1039, representative of the invention, and the comparative 2-(4-(2-fluorobenzyloxy)benzylamino)-2-methyl-propanamide (internal code and hereinafter NW1050), 2-(4-(4-fluorobenzyloxy)benzylamino)-2-methyl-propanamide (internal code and hereinafter NW1055, also one of the compounds tested in WO99/26614), 4-(4′-fluorophenoxy)benzaldheyde semicarbazone (hereinafter Co102862, tested in WO00/61188) and vehicle, were administered intravenously after second basal stimulation registering the responses to evoked flow by electrical stimulation at 5, 15, 30 and 60 min after treatment. NW-1015, was administered at the doses of 1, 2 and 5 mg/kg; NW-1029 was administered at the doses of 5 and 10 mg/kg and NW-1039 at the doses of 2 and 5 mg/kg whereas NW-1050, NW-1055 and Co102862 were all administered at the dose of 20 mg/kg. The responses obtained after drug administration were compared to the vehicle group, and were reported as a percentage of the inhibition of the evoked CBF. Data were compared by analysis of covariance (ANCOVA) followed by Dunnet's test. The antimigraine effect of the tested compounds was observed and measured as the percentage of the inhibition after i.v. administration of the above mentioned representative compounds of the CBF evoked in control condition. The data reported in table 1 below show the inhibitory activity of the tested compounds on the CBF response evoked by electrical stimulation of the left ophthalmic branch of the trigeminal ganglion. Results (mean±S.E. of 4/6 rats per group) are expressed as percent of the inhibition on evoked CBF response versus the vehicle.

Where [1] appears, read: dose 20 mg/kg, 5 min after administration.
The mark [2] stands for this setting: dose 20 mg/kg, 15 min after administration.
The mark [3] stands for this setting: dose 20 mg/kg, 30 min after administration.
Where [4] appears, read: dose 20 mg/kg, 60 min after administration.
Setting [5] is: at the doses tested (1-10 mg/kg), up to 60 min.
Where [6] appears, read: dose 2 mg/kg, 5 min after administration.
Setting [7] is: dose 2 mg/kg, 15 min after administration.
The mark [8] stands for this setting: dose 2 mg/kg, 30 min after administration.
Setting [9] is: dose 2 mg/kg, 60 min after administration.
Where [10] appears, read: dose 5 mg/kg, 5 min after administration.
[11] abbreviates: dose 5 mg/kg, 15 min after administration.
Setting [12] is: dose 5 mg/kg, 30 min after administration.
[13] abbreviates: dose 5 mg/kg, 60 min after administration.

Turning to `NC(=O)NN=Cc1ccc(Oc2ccc(F)cc2)cc1` [Co102862, 4-(4′-fluorophenoxy)benzaldheyde semicarbazone, reference compound], where the note is “20 mg/kg”, the “Effect on the evoked CBF compared to the vehicle group (in words)” value is “completely inactive”. Moreover, the “% Inhibition of the CBF response” value runs as follows: under setting [1], 0.9 ± 0.1%; under setting [2], 1.1 ± 0.3%; under setting [3], 1.2 ± 0.2%; under setting [4], 0.7 ± 0.1%.

`C[C@H](NCc1ccc(OCc2cccc(F)c2)cc1)C(N)=O` [NW-1015, (S)-(+)-2-[4-(3-fluorobenzyloxy)benzylamino]-propanamide]: the “Effect on the evoked CBF compared to the vehicle group (in words)” value under setting [5] was “long lasting i.v. activity reducing the evoked CBF up to 60 min after administration”. Moreover, the “% Inhibition of the CBF response” value reads like this: (dose 1 mg/kg, 5 min after administration) 25.6 ± 2.9%; (dose 1 mg/kg, 15 min after administration) 25.8 ± 2.7%; (dose 1 mg/kg, 30 min after administration) 36.6 ± 4.7 %; (dose 1 mg/kg, 60 min after administration) 15.7 ± 9.8%; under setting [6], 15.0 ± 1.8 %; under setting [7], 22.0 ± 3.8 %. Also, the “% Inhibition of the CBF response” value is, setting by setting: under setting [8], 20.6 ± 6.2 %; under setting [9], 4.0 ± 6.3%; under setting [10], 25.2 ± 2.6%; under setting [11], 35.5 ± 6.5 %; under setting [12], 34.7 ± 1.9 %; under setting [13], 27.1 ± 3.6%.

Regarding `C[C@H](NCc1ccc(OCc2ccccc2F)cc1)C(N)=O` [NW-1029, (S)-(+)-2-[4-(2-fluorobenzyloxy)benzylamino]-propanamide], the “Effect on the evoked CBF compared to the vehicle group (in words)” value under setting [5] is “reduced the evoked CBF compared to the vehicle up to 60 min post administration”. Also, the “% Inhibition of the CBF response” value stood at 15.5 ± 3.7% under setting [10]; 20.8 ± 3.5% under setting [11]; 27.8 ± 3.9 % under setting [12]; 30.6 ± 2.8% under setting [13]; 23.9 ± 3.9% (dose 10 mg/kg, 5 min after administration); 34.9 ± 8.2 % (dose 10 mg/kg, 15 min after administration). The “% Inhibition of the CBF response” value by setting is: (dose 10 mg/kg, 30 min after administration) 35.3 ± 2.6 %; (dose 10 mg/kg, 60 min after administration) 35.7 ± 3.9 %.

For `C[C@H](NCc1ccc(OCc2cccc(Cl)c2)cc1)C(N)=O` [NW-1039, (S)-(+)-2-[4-(3-chlorobenzyloxy)benzylamino]-propanamide], the “Effect on the evoked CBF compared to the vehicle group (in words)” value under setting [5] is “produced a decrease of the evoked CBF response compared to the vehicle group”. Moreover, the “% Inhibition of the CBF response” value reads like this: under setting [6], 24.2 ± 6.2%; under setting [7], 31.3 ± 6.2 %; under setting [8], 32.1 ± 8.1 %; under setting [9], 36.2 ± 9.1 %; under setting [10], 45.0 ± 6.3 %; under setting [11], 41.7 ± 1.8 %. The “% Inhibition of the CBF response” value is, setting by setting: under setting [12], 38.1 ± 2.6 %; under setting [13], 20.9 ± 9.4%.

For the compound `CC(C)(NCc1ccc(OCc2ccccc2F)cc1)C(N)=O` [NW-1050, 2-(4-(2-fluorobenzyloxy)benzylamino)-2-methyl-propanamide, reference compound], the “Effect on the evoked CBF compared to the vehicle group (in words)” value (20 mg/kg) was “completely inactive”. Further, the “% Inhibition of the CBF response” value by setting is: under setting [1], 1.2 ± 0.3%; under setting [2], 1.8 ± 0.6%; under setting [3], 1.7 ± 0.8%; under setting [4], 0.9 ± 0.1%.

`CC(C)(NCc1ccc(OCc2ccc(F)cc2)cc1)C(N)=O` [NW-1055, 2-(4-(4-fluorobenzyloxy)benzylamino)-2-methyl-propanamide, reference compound]: the “Effect on the evoked CBF compared to the vehicle group (in words)” value (20 mg/kg) is “light inhibition of the evoked CBF, which however did not reach a statistically significant difference”. Further, the “% Inhibition of the CBF response” value reads like this: under setting [1], 6.9 ± 4.2%; under setting [2], 3.4 ± 3.2%; under setting [3], 11.3 ± 2.0%; under setting [4], 14.0 ± 4.0%.
